The source of these data is patent US7482425B2, “Compositions for lipid matrix-assisted chemical ligation” (Amylin Pharmaceuticals, Inc., priority 2002, dated 2009).

For the series the following is noted: pH 7.5.

Where no end group is shown, it is not given here.

“TGRPEWIWLALGTALMGLGTLYFLVKGMGVSDPDAKK [Peptide 1, TGRPEWIWLALGTALMGLGTLYFLVKGMGVSDPDAKK]”: the solubility result is recorded as “does not dissolve”.
